Experimental data reported in patent US9975907B2, “Pyrimidinones as PI3K inhibitors” (Incyte Corporation, priority 2009, dated 2018).
Structures can show the parent of a compound that is named as a salt.

Key:
[1] = system: Pfeiffer cell line (diffuse large B cell lymphoma); test: Pfeiffer Cell Proliferation Assay; format: cell-based; details: 3-4 days, [3H]-thymidine incorporation
Experimental: Pfeiffer cell line (diffuse large B cell lymphoma) was purchased from ATCC (Manassas, Va.) and maintained in the culture medium recommended (RPMI and 10% FBS). To measure the anti-proliferation activity of the PI3Kδ submittals, the Pfeiffer cells were plated with the culture medium (2×10^3 cells/well/per 200 μl) into 96-well ultra-low binding plates (Corning, Corning, N.Y.), in the presence or absence of a concentration range of test compounds. After 3-4 days, [^3H]-thymidine (1 μCi/well) (PerkinElmer, Boston, Mass.) in PBS was then added to the cell culture for an additional 12 hrs before the incorporated radioactivity was separated by filtration with water through GF/B filters (Packard Bioscience, Meriden, Conn.) and measured by liquid scintillation counting with a TopCount (Packard Bioscience). See Table 3 for data related to compounds of the invention.

[2] = biological target: T1, PI3Kδ (p110δ/p85α) (Homo sapiens (Human), UniProt O00329); test: PI3Kδ Scintillation Proximity Assay (Assay A3); format: biochemical; details: column b, Assay A3 (SPA), 20 μM ATP
T1 sequence (O00329 whole entry, species assumed): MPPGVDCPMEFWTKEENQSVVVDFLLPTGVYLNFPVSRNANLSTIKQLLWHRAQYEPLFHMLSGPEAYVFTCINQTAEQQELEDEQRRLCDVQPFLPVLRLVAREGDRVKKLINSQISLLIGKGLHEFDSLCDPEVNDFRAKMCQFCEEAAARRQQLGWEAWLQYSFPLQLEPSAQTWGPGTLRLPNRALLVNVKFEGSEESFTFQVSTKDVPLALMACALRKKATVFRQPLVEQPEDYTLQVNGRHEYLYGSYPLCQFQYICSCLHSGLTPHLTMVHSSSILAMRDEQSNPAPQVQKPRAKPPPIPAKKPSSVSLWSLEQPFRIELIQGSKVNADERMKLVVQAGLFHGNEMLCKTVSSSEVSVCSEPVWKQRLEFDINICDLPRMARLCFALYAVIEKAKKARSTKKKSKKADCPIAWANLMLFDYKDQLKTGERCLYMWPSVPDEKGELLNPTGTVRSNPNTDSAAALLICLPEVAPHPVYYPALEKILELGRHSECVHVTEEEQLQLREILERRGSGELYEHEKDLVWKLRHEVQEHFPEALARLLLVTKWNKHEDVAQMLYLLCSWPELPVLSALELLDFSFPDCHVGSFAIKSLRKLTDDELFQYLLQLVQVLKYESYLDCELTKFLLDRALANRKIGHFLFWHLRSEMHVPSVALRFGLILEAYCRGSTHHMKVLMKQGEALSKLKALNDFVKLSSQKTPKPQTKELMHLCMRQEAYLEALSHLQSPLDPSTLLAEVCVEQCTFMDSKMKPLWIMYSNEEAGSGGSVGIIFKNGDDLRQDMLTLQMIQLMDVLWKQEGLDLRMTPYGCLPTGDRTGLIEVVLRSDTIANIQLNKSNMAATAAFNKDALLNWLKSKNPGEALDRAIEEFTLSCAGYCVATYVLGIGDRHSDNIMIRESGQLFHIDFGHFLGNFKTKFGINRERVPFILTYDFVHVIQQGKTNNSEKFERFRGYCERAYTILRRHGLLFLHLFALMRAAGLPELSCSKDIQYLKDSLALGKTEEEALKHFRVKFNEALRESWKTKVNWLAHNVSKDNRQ
T1 sequence (P27986 whole entry partner, species assumed): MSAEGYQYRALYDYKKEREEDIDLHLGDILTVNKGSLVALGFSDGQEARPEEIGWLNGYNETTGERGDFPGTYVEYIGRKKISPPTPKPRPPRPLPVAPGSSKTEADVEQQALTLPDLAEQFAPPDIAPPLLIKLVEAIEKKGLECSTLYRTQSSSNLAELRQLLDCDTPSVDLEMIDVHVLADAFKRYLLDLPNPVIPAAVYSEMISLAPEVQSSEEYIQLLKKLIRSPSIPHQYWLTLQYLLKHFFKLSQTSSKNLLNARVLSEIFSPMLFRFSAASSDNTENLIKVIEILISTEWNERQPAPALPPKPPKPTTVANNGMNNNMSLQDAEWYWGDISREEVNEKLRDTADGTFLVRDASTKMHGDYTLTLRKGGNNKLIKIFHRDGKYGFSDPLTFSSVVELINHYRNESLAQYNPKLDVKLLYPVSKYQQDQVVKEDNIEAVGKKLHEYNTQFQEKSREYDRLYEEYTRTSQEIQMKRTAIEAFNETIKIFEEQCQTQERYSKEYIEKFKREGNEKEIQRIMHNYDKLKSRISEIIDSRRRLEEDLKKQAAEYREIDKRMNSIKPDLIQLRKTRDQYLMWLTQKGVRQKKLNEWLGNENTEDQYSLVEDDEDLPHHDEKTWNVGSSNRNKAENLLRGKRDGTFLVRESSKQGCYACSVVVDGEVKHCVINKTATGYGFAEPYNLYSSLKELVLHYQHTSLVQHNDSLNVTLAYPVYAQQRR
Text: [γ-^33P]ATP (10 mCi/mL) was purchased from Perkin-Elmer (Waltham, Mass.). Lipid kinase substrate, D-myo-Phosphatidylinositol 4,5-bisphosphate (PtdIns(4,5)P2)D (+)-sn-1,2-di-O-octanoylglyceryl, 3-O-phospho linked (PIP2), CAS 204858-53-7, was purchased from Echelon Biosciences (Salt Lake City, Utah). PI3Kδ (p110δ/p85α) was purchased from Millipore (Bedford, Mass.). ATP, MgCl2, DTT, EDTA, MOPS and CHAPS were purchased from Sigma-Aldrich (St. Louis, Mo.). Wheat Germ Agglutinin (WGA) YSi SPA Scintillation Beads was purchased from GE healthcare life sciences (Piscataway, N.J.).
The kinase reaction was conducted in polystyrene 384-well matrix white plate from Thermo Fisher Scientific in a final volume of 25 μL. Inhibitors were first diluted serially in DMSO and added to the plate wells before the addition of other reaction components. The final concentration of DMSO in the assay was 0.5%. The PI3K assays were carried out at room temperature in 20 mM MOPS, pH 6.7, 10 mM MgCl2, 5 mM DTT and CHAPS 0.03%. Reactions were initiated by the addition of ATP, the final reaction mixture consisted of 20 μM PIP2, 20 μM ATP, 0.2 μCi [γ-^33P] ATP, 4 nM PI3Kδ. Reactions were incubated for 210 min and terminated by the addition of 40 μL SPA beads suspended in quench buffer: 150 mM potassium phosphate pH 8.0, 20% glycerol. 25 mM EDTA, 400 μM ATP. The final concentration of SPA beads was 1.0 mg/mL. After the plate sealing, plates were shaken overnight at room temperature and centrifuged at 1800 rpm for 10 minutes, the radioactivity of the product was determined by scintillation counting on Topcount (Perkin-Elmer). IC50 determination was performed by fitting the curve of percent control activity versus the log of the inhibitor concentration using the GraphPad Prism 3.0 software.

[3] = biological target: T1, PI3Kδ (p110δ/p85α); test: AlphaScreen Assay for PI3Kδ (Assay A1); format: biochemical; details: column a, 20 μM ATP
Text: PI3-Kinase luminescent assay kit including lipid kinase substrate, D-myo-phosphatidylinositol 4,5-bisphosphate (PtdIns(4,5)P2)D (+)-sn-1,2-di-O-octanoylglyceryl, 3-O-phospho linked (PIP2), biotinylated I(1,3,4,5)P4, PI(3,4,5)P3 Detector Protein, was purchased from Echelon Biosciences (Salt Lake City, Utah). AlphaScreen™ GST Detection Kit including donor and acceptor beads was purchased from PerkinElmer Life Sciences (Waltham, Mass.). PI3Kδ (p110δ/p85α) was purchased from Millipore (Bedford, Mass.). ATP, MgCb, DTT, EDTA, HEPES and CHAPS were purchased from Sigma-Aldrich (St. Louis, Mo.).
AlphaScreen™ Assay for PI3Kδ
The kinase reaction was conducted in 384-well REMP plate from Thermo Fisher Scientific in a final volume of 40 μL. Inhibitors were first diluted serially in DMSO and added to the plate wells before the addition of other reaction components. The final concentration of DMSO in the assay was 2%. The PI3K assays were carried out at room temperature in 50 mM HEPES, pH 7.4, 5 mM MgCl2, 50 mM NaCl, 5 mM DTT and CHAPS 0.04%. Reactions were initiated by the addition of ATP, the final reaction mixture consisted of 20 μM PIP2, 20 μM ATP, 1.2 nM PI3Kδ were incubated for 20 min. 10 μL of reaction mixture was then transferred to 5 μL 50 nM biotinylated I(1,3,4,5)P4 in quench buffer: 50 mM HEPES pH 7.4, 150 mM NaCl, 10 mM EDTA, 5 mM DTT, 0.1% Tween-20, followed with the addition of 10 μL AlphaScreen™ donor and acceptor beads suspended in quench buffer containing 25 nM PI(3,4,5)P3 detector protein. The final concentration of both donor and acceptor beads is […]. After plate sealing, the plate was incubated in a dark location at room temperature for 2 hours. The activity of the product was determined on Fusion-alpha microplate reader (Perkin-Elmer). IC50 determination was performed by fitting the curve of percent control activity versus the log of the inhibitor concentration using the GraphPad Prism 3.0 software.

Structure (SMILES)	IC50 [1]	IC50 [2]	IC50 ([1]; trifluoroacetic acid salt)	IC50 [3]	IC50 ([1]; Homo sapiens, Pfeiffer)
Cc1csc2nc([C@H](C)Nc3nc(N)nc4[nH]cnc34)c(-c3ccccc3Cl)c(=O)n12 (single isomer, unassigned) [39 Second peak]	< 50 nM	–	–	–	–
Cc1csc2nc([C@H](C)Nc3ncnc4[nH]cnc34)c(-c3ccccc3Cl)c(=O)n12 (single isomer, unassigned) [43 Second peak]	< 50 nM	–	–	–	–
Cc1cccc2nc(C(C)Nc3ncnc4[nH]cnc34)c(-c3cccc(F)c3)c(=O)n12 (single isomer, unassigned) [Example 72, 3-(3-Fluorophenyl)-6-methyl-2-[1-(9H-purin-6-ylamino)ethyl]-4H-pyrido[1,2-a]pyrimidin-4-one trifluoroacetic acid salt]	–	> 500 nM	500 to 1000 nM	–	–
Cc1cccc2nc(C(C)Nc3nc(N)nc4[nH]cnc34)c(-c3cccc(F)c3)c(=O)n12 (single isomer, unassigned) [Example 74, 2-{1-[(2-Amino-9H-purin-6-yl)amino]ethyl}-3-(3-fluorophenyl)-6-methyl-4H-pyrido[1,2-a]pyrimidin-4-one trifluoroacetic acid salt]	–	< 50 nM	< 50 nM	–	–
Cc1cccc2nc(C(C)Nc3nc(N)nc4[nH]cnc34)c(-c3cccc(F)c3)c(=O)n12 (single isomer, unassigned) [Example 75, 2-{1-[(2-Amino-9H-purin-6-yl)amino]ethyl}-3-(3-fluorophenyl)-6-methyl-4H-pyrido[1,2-a]pyrimidin-4-one trifluoroacetic acid salt]	–	> 500 nM	500 to 1000 nM	–	–
Cc1cccc2nc(C(C)n3cnc4c(N)ncnc43)c(-c3ccccc3)c(=O)n12 (stereo not drawn) [Example 1, 2-[1-(6-amino-9H-purin-9-yl)ethyl]-6-methyl-3-phenyl-4H-pyrido[1,2-a]pyrimidin-4-one]	–	100 to 500 nM	–	100 to 500 nM	–
CCC(Nc1ncnc2[nH]cnc12)c1nc2cccc(C)n2c(=O)c1-c1ccccc1 (stereo not drawn) [Example 2, 6-methyl-3-phenyl-2-[1-(9H-purin-6-ylamino)propyl]-4H-pyrido[1,2-a]pyrimidin-4-one]	–	< 50 nM	–	50 to 100 nM	–
CCC(Nc1ncnc2[nH]cnc12)c1nc2cccc(C)n2c(=O)c1-c1cncc(F)c1 (stereo not drawn) [Example 3, 3-(5-fluoropyridin-3-yl)-6-methyl-2-[1-(9H-purin-6-ylamino)propyl]-4H-pyrido[1,2-a]pyrimidin-4-one]	–	100 to 500 nM	–	100 to 500 nM	–
CCC(Nc1ncnc2[nH]cnc12)c1nc2cccc(C)n2c(=O)c1-c1cccc(F)c1 (stereo not drawn) [Example 4, 3-(3-fluorophenyl)-6-methyl-2-[1-(9H-purin-6-ylamino)propyl]-4H-pyrido[1,2-a]pyrimidin-4-one]	–	50 to 100 nM	–	100 to 500 nM	–
CCC(Nc1ncnc2[nH]cnc12)c1nc2cccc(C)n2c(=O)c1-c1cc(F)cc(F)c1 (stereo not drawn) [Example 5, 3-(3,5-difluorophenyl)-6-methyl-2-[1-(9H-purin-6-ylamino)propyl]-4H-pyrido[1,2-a]pyrimidin-4-one]	–	50 to 100 nM	–	100 to 500 nM	–
CCC(Nc1ncnc2[nH]cnc12)c1nc2cccc(C)n2c(=O)c1-c1cccnc1F (stereo not drawn) [Example 6, 3-(2-fluoropyridin-3-yl)-6-methyl-2-[1-(9H-purin-6-ylamino)propyl]-4H-pyrido[1,2-a]pyrimidin-4-one]	–	100 to 500 nM	–	100 to 500 nM	–
CCC(Nc1ncnc2[nH]cnc12)c1nc2cccc(C)n2c(=O)c1-c1cn[nH]c1 (stereo not drawn) [Example 7, 6-methyl-2-[1-(9H-purin-6-ylamino)propyl]-3-(1H-pyrazol-4-yl)-4H-pyrido[1,2-a]pyrimidin-4-one]	–	50 to 100 nM	–	100 to 500 nM	–
Cc1csc2nc(C(C)Nc3ncnc4[nH]cnc34)c(-c3ccccc3)c(=O)n12 (stereo not drawn) [Example 8, 3-methyl-6-phenyl-7-[1-(9H-purin-6-ylamino)ethyl]-5H-[1,3]thiazolo[3,2-a]pyrimidin-5-one]	–	< 50 nM	–	50 to 100 nM	–
Cc1csc2nc(C(C)Nc3ncnc4[nH]cnc34)c(-c3ccccn3)c(=O)n12 (stereo not drawn) [Example 14, 3-methyl-7-[1-(9H-purin-6-ylamino)ethyl]-6-pyridin-2-yl-5H-[1,3]thiazolo[3,2-a]pyrimidin-5-one]	–	50 to 100 nM	–	50 to 100 nM	–
Cc1cccc2nc(C(C)Nc3ncnc4[nH]cnc34)c(-c3cccc(F)c3)c(=O)n12 (stereo not drawn) [Example 70, 3-(3-Fluorophenyl)-6-methyl-2-[1-(9H-purin-6-ylamino)ethyl]-4H-pyrido[1,2-a]pyrimidin-4-one trifluoroacetic acid salt]	–	50 to 100 nM	–	–	< 50 nM
Cc1cccc2nc(C(C)Nc3nc(N)nc4[nH]cnc34)c(-c3cccc(F)c3)c(=O)n12 (stereo not drawn) [Example 73, 2-{1-[(2-Amino-9H-purin-6-yl)amino]ethyl}-3-(3-fluorophenyl)-6-methyl-4H-pyrido[1,2-a]pyrimidin-4-one trifluoroacetic acid salt]	–	< 50 nM	–	–	< 50 nM
